The source of these data is US10106529B2, “Compounds that modulate intracellular calcium” (CalciMedica, Inc., priority 2011, dated 2018).

pIC50: −log10 of the molar value.

For one assay, the target named is T1, Orai1/STIM1 (Homo sapiens, UniProt Q96D31).
T1 construct: c-myc (C); expressed in transfected cells; host or cells: HEK-293 cells stably expressing recombinant human STIM1 and Orai1
The assay can be described thus: Fluorescence-based assay of store-operated calcium entry in Orai1/STIM1 stable cells. Also noted: key to Orai1/STIM1 (IC50, μmol): A, IC50 < 0.6 μM; B, IC50 = 0.6-1.2 μM; C, IC50 > 1.2 μM; — no fit. The assay is classed as cell-based. The settings on record: HEK-293 cells stably expressing human STIM1 and Orai1, inhibition of Peak-Basal fluorescence signal after calcium addition; for pIC50: read-out: Orai1/STIM1 (IC50, μmol). The source says: (§1) Fluorescence-based assays are used for screening the compounds described herein, such as compounds of Formulas (I), (IA), (II), (IIA), (III), (IIIA), (IV), (IVA), (V), (VA), (VI), (VIA), (VII), (VIIA), (VIII), (VIIIA), (IX), (IXA), (X), (XI), (XIA), (XII), or (XIIA) which modulate intracellular calcium.
A. Fluorescence-Based Assay of Store-Operated Calcium Entry in Orai1/STIM1 Stable Cells.
Cells stably expressing recombinant human STIM1 and Orai1 are generated by transfecting a human Orai1 expression plasmid (pcDNA3.1-Orai1-cmyc) into HEK-293 cells stably overexpressing human STIM1 (Roos et al. 2005 JCB 169(3): 435-445). Colonies of cells stably expressing both STIM1 and Orai1 proteins are selected and then subcloned by limiting dilution. Cells were cultured at 37° C./6% CO2 in complete medium with 10% FBS and appropriate selection markers.
The day prior to performing the assay Orai1/STIM1 stable cells are plated in 50 μL of complete medium at 90-95% confluence in a 384 well plate. Cells are grown at 37° C./6% CO2 overnight. On the day of the assay, 1.5 μM fluo-4-AM (Invitrogen) in complete medium is added to the cells, which are then incubated for 1 hour at RT. Cells are washed once in Ca^2+-free HBSS (Hank's buffered saline solution) and 35 μl of Ca^2+-free HBSS is added to each well. Test compounds are added to wells in a 10 μL Ca^2+-free HBSS solution, prepared at 4.5× the desired final concentration, and incubated for 30 minutes at RT. The initial baseline fluorescence signal is then measured with a FLIPR^384 (Molecular Devices) plate reader. Calcium entry is initiated by adding 5 μl of 10×CaCl2 (10 mM) in HBSS, and changes in cellular fluorescence are measured with the FLIPR^384 plate reader. In each well, the magnitude of the fluorescence signal as a result of calcium entry into the cell is determined by calculating the difference between the peak fluorescence signal measured after calcium addition and the initial baseline fluorescence signal (designated Peak-Basal). IC50 values are typically calculated as the concentration that inhibited 50% of the Peak-Basal signal.

The subject of another assay is RBL-2H3 cells. The assay can be described thus: Fluorescence-based assay of store-operated calcium entry in RBL-2H3 cells. The assay is classed as cell-based, rat. On the set-up: key to RBL-2H3 (IC50, μmol): A, IC50 < 0.6 μM; B, IC50 = 0.6-1.2 μM; C, IC50 > 1.2 μM; — no fit. The settings on record: thapsigargin, inhibition of Upslope of fluorescence after calcium addition; for pIC50: Rattus norvegicus, read-out: RBL-2H3 (IC50, μmol). The method, then:
as §1
B. Fluorescence-Based Assay of Store-Operated Calcium Entry in RBL-2H3 Cells.
RBL-2H3 cells are obtained from ATCC and maintained in complete medium with 10% FBS at 37° C./6% CO2.
The day prior to performing the assay, RBL-2H3 cells are plated in 50 μL of complete medium in a 384 well plate. Cells are grown at 37° C./6% CO2 overnight and grow to 50-60% confluence by the next day. On the assay day, 1.5 µM Fluo-4-AM dye (Invitrogen) in complete medium is added and incubated for 1 hour at RT. Cells are washed twice in Ca^2+-free HBSS buffer and 35 μL Ca^2+-free HBSS buffer is added to each well. 10 μL of a test compound prepared in a Ca^2+-free HBSS solution at 4.5× of the desired concentration is added to a well and incubated for 5 minutes at RT. 10 μL of thapsigargin prepared in a Ca^2+-free HBSS solution at 5.5× of the desired concentration (5.5 uM) is added to each well and incubated for an additional 25 minutes. The initial baseline fluorescence signal is measured with a FLIPR^384 (Molecular Devices) plate reader. 5 μL of 12× calcium in HBSS (12 mM) is added and changes in cellular fluorescence are measured with the FLIPR^384 plate reader. In each well, the change in the fluorescent signal as a function of time due to calcium entry into the cell is determined by calculating the difference between the fluorescent signal measured 7 seconds after calcium addition and the initial baseline fluorescence signal at time zero (t=0). This parameter is designated Upslope. The IC50 value is calculated as the concentration at which 50% of the Upslope is inhibited.

T1 sequence (Q96D31 whole entry): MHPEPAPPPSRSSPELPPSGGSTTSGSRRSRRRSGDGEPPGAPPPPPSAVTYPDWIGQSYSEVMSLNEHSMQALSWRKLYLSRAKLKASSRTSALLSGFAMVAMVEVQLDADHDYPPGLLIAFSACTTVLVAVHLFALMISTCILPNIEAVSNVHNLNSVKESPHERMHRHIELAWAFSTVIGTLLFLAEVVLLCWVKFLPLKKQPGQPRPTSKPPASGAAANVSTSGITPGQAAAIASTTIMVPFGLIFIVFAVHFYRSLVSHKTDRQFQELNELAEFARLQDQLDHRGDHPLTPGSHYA

Turning to `Cc1cc2c(cc1-c1cnc(NCc3c(F)cc(F)cc3F)cn1)OC(F)(F)O2` [Compound 23], the pIC50 at Orai1/STIM1 is 5.92 to 6.22; in the assay on RBL-2H3 cells, > 6.22.

For `Cc1cc2c(cc1-c1ccc(NCc3c(F)cccc3F)nc1)OCCO2` [Compound 37, N-(2,6-difluorobenzyl)-5-(7-methyl-2,3-dihydrobenzo[b][1,4]dioxin-6-yl)pyridin-2-amine], the pIC50 was 5.92 to 6.22 at Orai1/STIM1 and > 6.22 with RBL-2H3 cells.

With `Fc1cccc(F)c1CNc1ccc(-c2cc3c(cc2Cl)OCCO3)cn1` [Compound 42, 5-(7-chloro-2,3-dihydrobenzo[b][1,4]dioxin-6-yl)-N-(2,6-difluorobenzyl)pyridin-2-amine], the pIC50 is < 5.92 on Orai1/STIM1 and > 6.22 in the assay with RBL-2H3 cells.

Consider `Cc1cc(F)ccc1CNc1ccc(-c2nc3c(cc2Cl)OCCO3)cn1` [Compound 46], for which the pIC50 on Orai1/STIM1 is 5.92 to 6.22; in the assay on RBL-2H3 cells it was > 6.22.

As for `Cn1nc(C(F)(F)F)cc1-c1cnc(OCc2c(F)cccc2Cl)nc1` [Compound 69], the “Orai1/STIM1 (IC50, μmol)” value at Orai1/STIM1 is reported as “—”. Moreover, the “RBL-2H3 (IC50, μmol)” value with RBL-2H3 cells was “—”.

`Cc1cc2c(cc1-c1cnc(OCc3c(F)cccc3Cl)nc1)OC(F)(F)O2` [Compound 70]: the pIC50 was < 5.92 at Orai1/STIM1 and > 6.22 in the assay on RBL-2H3 cells.

Regarding `Cn1nc(C(F)(F)F)cc1-c1ccc(NC(=O)c2ccccc2F)nc1` [Compound 72, (2-fluorophenyl)-N-{5-[1-methyl-3-(trifluoromethyl)pyrazol-5-yl](2-pyridyl)}carboxamide], the pIC50 on Orai1/STIM1 and with RBL-2H3 cells was > 6.22 each time.

As to `Cn1nc(C(F)(F)F)cc1-c1ccc(NC(=O)c2c(F)cccc2F)nc1` [Compound 74, (2,6-difluorophenyl)-N-{5-[1-methyl-3-(trifluoromethyl)pyrazol-5-yl](2-pyridyl)}carboxamide], the pIC50 on Orai1/STIM1 was 5.92 to 6.22; with RBL-2H3 cells it was > 6.22.

Take `Cn1nc(C(F)(F)F)cc1-c1cnc(NCc2c(F)cccc2F)cc1F` [Compound 76, N-(2,6-difluorobenzyl)-4-fluoro-5-(1-methyl-3-(trifluoromethyl)-1H-pyrazol-5-yl)pyridin-2-amine]: the results for the pIC50 at Orai1/STIM1 and with RBL-2H3 cells were < 5.92 and 5.92 to 6.22, respectively.

With `Cn1nc(C(F)(F)F)cc1-c1ccc(NCc2c(F)ccc(F)c2F)nc1` [Compound 78, 5-(1-methyl-3-(trifluoromethyl)-1H-pyrazol-5-yl)-N-(2,3,6-trifluorobenzyl)pyridin-2-amine], the pIC50 at Orai1/STIM1 and with RBL-2H3 cells was > 6.22 each time.

As to `Cn1nc(C(F)(F)F)cc1-c1ccc(NCc2ccc(F)cc2F)nc1` [Compound 80, 5-(1-methyl-3-(trifluoromethyl)-1H-pyrazol-5-yl)-N-(2,4-difluorobenzyl)pyridin-2-amine], the pIC50 on Orai1/STIM1 and in the assay on RBL-2H3 cells was > 6.22 throughout.

As to `Cn1nc(C(F)(F)F)cc1-c1ccc(NCc2c(F)cc(F)cc2F)nc1` [Compound 82, 5-(1-methyl-3-(trifluoromethyl)-1H-pyrazol-5-yl)-N-(2,4,6-trifluorobenzyl)pyridin-2-amine], the pIC50 at Orai1/STIM1 and in the assay on RBL-2H3 cells was > 6.22 throughout.

Consider `Cn1nc(C(F)(F)F)cc1-c1ccc(NCc2c(F)cncc2F)nc1` [Compound 84, N-((3,5-difluoropyridin-4-yl)methyl)-5-(1-methyl-3-(trifluoromethyl)-1H-pyrazol-5-yl)pyridin-2-amine], for which the pIC50 on Orai1/STIM1 and with RBL-2H3 cells was > 6.22 throughout.

Consider `Cc1cccc(F)c1CNc1ccc(-c2cc(C(F)(F)F)nn2C)cn1` [Compound 86, N-(2-fluoro-6-methylbenzyl)-5-(1-methyl-3-(trifluoromethyl)-1H-pyrazol-5-yl)pyridin-2-amine], for which the pIC50 on Orai1/STIM1 and with RBL-2H3 cells was > 6.22 each time.

With `Cn1nc(C(F)(F)F)cc1-c1cnc(NCc2ccccc2F)nc1` [Compound 96, N-(2-fluorobenzyl)-5-(1-methyl-3-(trifluoromethyl)-1H-pyrazol-5-yl)pyrimidin-2-amine], the pIC50 at Orai1/STIM1 and in the assay on RBL-2H3 cells was > 6.22 each time.

For `Fc1cccc(F)c1CNc1ccc(-n2nc(C(F)(F)F)cc2C(F)(F)F)cn1` [Compound 100, 5-(3,5-bis(trifluoromethyl)-1H-pyrazol-1-yl)-N-(2,6-difluorobenzyl)pyridin-2-amine], the pIC50 on Orai1/STIM1 and in the assay with RBL-2H3 cells was > 6.22 throughout.

With `Fc1cc(F)c(CNc2ccc(-n3nc(C(F)(F)F)cc3C(F)(F)F)cn2)c(F)c1` [Compound 102, 5-(3,5-bis(trifluoromethyl)-1H-pyrazol-1-yl)-N-(2,4,6-trifluorobenzyl)pyridin-2-amine], the pIC50 at Orai1/STIM1 and in the assay with RBL-2H3 cells was > 6.22 in each case.

As for `Cc1nc(C(F)(F)F)cn1-c1ccc(NCc2c(F)cccc2F)nc1` [Compound 106, N-(2,6-difluorobenzyl)-5-(2-methyl-4-(trifluoromethyl)-1H-imidazol-1-yl)pyridin-2-amine], the pIC50 on Orai1/STIM1 and with RBL-2H3 cells was > 6.22 each time.

On to `Cc1nc(C(F)(F)F)cn1-c1ccc(NCc2c(F)cc(F)cc2F)nc1` [Compound 108, 5-(2-methyl-4-(trifluoromethyl)-1H-imidazol-1-yl)-N-(2,4,6-trifluorobenzyl)pyridin-2-amine], for which the results for the pIC50 on Orai1/STIM1 and in the assay on RBL-2H3 cells were 5.92 to 6.22 and > 6.22, respectively.

Consider `Cc1nc(C(F)(F)F)cn1-c1ccc(NCc2c(F)cncc2F)nc1` [Compound 110, N-((3,5-difluoropyridin-4-yl)methyl)-5-(2-methyl-4-(trifluoromethyl)-1H-imidazol-1-yl)pyridin-2-amine], for which, at Orai1/STIM1, the “Orai1/STIM1 (IC50, μmol)” value is recorded as “—”. Further, the pIC50 with RBL-2H3 cells was < 5.92.

Take `Cc1c(F)cccc1CNc1ccc(-n2cc(C(F)(F)F)nc2C)cn1` [Compound 112, N-(3-fluoro-2-methylbenzyl)-5-(2-methyl-4-(trifluoromethyl)-1H-imidazol-1-yl)pyridin-2-amine]: the “Orai1/STIM1 (IC50, μmol)” value at Orai1/STIM1 is “—”. In the assay with RBL-2H3 cells, the pIC50 is 5.92 to 6.22.

Consider `Cc1cc(C(F)(F)F)nn1-c1ccc(NCc2c(F)cccc2F)nc1` [Compound 116, N-(2,6-difluorobenzyl)-5-(5-methyl-3-(trifluoromethyl)-1H-pyrazol-1-yl)pyridin-2-amine], for which the pIC50 at Orai1/STIM1 and in the assay with RBL-2H3 cells was > 6.22 throughout.

Consider `Cc1cc(C(F)(F)F)nn1-c1ccc(NCc2c(F)cc(F)cc2F)nc1` [Compound 118, 5-(5-methyl-3-(trifluoromethyl)-1H-pyrazol-1-yl)-N-(2,4,6-trifluorobenzyl)pyridin-2-amine], for which the pIC50 on Orai1/STIM1 and with RBL-2H3 cells was > 6.22 in each case.

Consider `COc1cc(F)c(CNc2ccc(-n3nc(C(F)(F)F)cc3C)cn2)c(F)c1` [Compound 120, N-(2,6-difluoro-4-methoxybenzyl)-5-(5-methyl-3-(trifluoromethyl)-1H-pyrazol-1-yl)pyridin-2-amine], for which the pIC50 at Orai1/STIM1 was 5.92 to 6.22; in the assay with RBL-2H3 cells, > 6.22.
